Source: the supplement of paper PMC10307832

What was measured:
Assay in all cases: relative viability (nuclei count vs DMSO), 5 days (fraction); higher = more cells survive
Dovitinib + Palbociclib = compound: CN1CCN(c2ccc3nc(-c4c(N)c5c(F)cccc5[nH]c4=O)[nH]c3c2)CC1 [Dovitinib] + CC(=O)c1c(C)c2cnc(Nc3ccc(N4CCNCC4)cn3)nc2n(C2CCCC2)c1=O [Palbociclib] (partner 0.5 µM)
Method in brief: (§1)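 Relative viability was taken as the ratio of nuclei in treated wells to nuclei in vehicle wells. Lung cancer cell lines in 1536-well plates received compounds by pin tool one day after seeding, either one drug alone or a fixed anchor-drug dose plus five library-drug doses (not always all listed) in √10 steps. Nuclei were counted on 4× images after 5 days of treatment, and values are medians of duplicate plates.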

Dovitinib + OSI-027 = compound: CN1CCN(c2ccc3nc(-c4c(N)c5c(F)cccc5[nH]c4=O)[nH]c3c2)CC1 [Dovitinib] + COc1cccc2cc(-c3nc([C@H]4CC[C@H](C(=O)O)CC4)n4ncnc(N)c34)[nH]c12 [OSI-027] (partner 0.5 µM)
Method in brief: as §1

Dovitinib + Foretinib = compound: CN1CCN(c2ccc3nc(-c4c(N)c5c(F)cccc5[nH]c4=O)[nH]c3c2)CC1 [Dovitinib] + COc1cc2c(Oc3ccc(NC(=O)C4(C(=O)Nc5ccc(F)cc5)CC4)cc3F)ccnc2cc1OCCCN1CCOCC1 [Foretinib] (partner 0.25 µM)
Method in brief: as §1

Dovitinib = compound: CN1CCN(c2ccc3nc(-c4c(N)c5c(F)cccc5[nH]c4=O)[nH]c3c2)CC1 [Dovitinib]
Method in brief: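 Viability here means nuclei in treated wells divided by nuclei in vehicle wells, reported as the median across plates. Only plates with control CV below 25% and at least one doubling passed. Lung cancer cell lines in 1536-well plates were exposed to five √10-spaced library-drug doses for 5 days and counted from 4× Hoechst images in MetaXpress.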

Row | Cell Line | relative viability (Dovitinib + Palbociclib; first compound 0.02 µM) | relative viability (Dovitinib + Palbociclib; first compound 0.06325 µM) | relative viability (Dovitinib + Palbociclib; first compound 0.2 µM) | relative viability (Dovitinib + Palbociclib; first compound 0.6325 µM) | relative viability (Dovitinib + Palbociclib; first compound 2 µM) | relative viability (Dovitinib + OSI-027; first compound 0.02 µM) | relative viability (Dovitinib + OSI-027; first compound 0.06325 µM) | relative viability (Dovitinib + OSI-027; first compound 0.2 µM) | relative viability (Dovitinib + OSI-027; first compound 0.6325 µM) | relative viability (Dovitinib + OSI-027; first compound 2 µM) | relative viability (Dovitinib + Foretinib; first compound 0.02 µM) | relative viability (Dovitinib + Foretinib; first compound 0.06325 µM) | relative viability (Dovitinib + Foretinib; first compound 0.2 µM) | relative viability (Dovitinib + Foretinib; first compound 0.6325 µM) | relative viability (Dovitinib + Foretinib; first compound 2 µM) | relative viability (Dovitinib; 0.02 µM) | relative viability (Dovitinib; 0.06325 µM) | relative viability (Dovitinib; 0.2 µM) | relative viability (Dovitinib; 0.6325 µM) | relative viability (Dovitinib; 2 µM)
1 | HCC-78 | 0.437 | 0.468 | 0.511 | 0.54 | 0.522 | 0.384 | 0.544 | 0.373 | 0.403 | 0.388 | 0.632 | 0.528 | 0.535 | 0.599 | 0.623 | 1.02 | 0.809 | 1.05 | 1.04 | 0.952
2 | HCC-366 | 0.377 | 0.364 | 0.372 | 0.396 | 0.402 | 0.807 | 0.829 | 0.848 | 0.914 | 0.791 | 0.958 | 0.901 | 0.947 | 0.925 | 0.883 | 0.989 | 0.978 | 0.993 | 0.973 | 0.982
3 | HCC-827 | 0.527 | 0.461 | 0.409 | 0.53 | 0.528 | 0.797 | 0.791 | 0.818 | 0.833 | 0.759 | 0.983 | 1.07 | 1.14 | 1.09 | 1.09 | 1.05 | 1.01 | 1.05 | 1.1 | 1.03
4 | HOP-62 | 0.355 | 0.456 | 0.465 | 0.396 | 0.499 | 0.794 | 0.79 | 0.866 | 0.925 | 0.855 | 1.05 | 1.18 | 1.08 | 1.28 | 1.07 | 0.907 | 1.03 | 1.03 | 1.06 | 1.04
5 | IA-LM | – | – | – | – | – | – | – | – | – | – | 1.2 | 1.19 | 1.05 | 1.24 | 1.12 | 0.864 | 1.02 | 0.962 | 0.989 | 0.873
6 | LC-2-ad | 0.484 | 0.449 | 0.472 | 0.484 | 0.504 | 0.879 | 0.929 | 0.984 | 0.744 | 0.831 | 0.989 | 0.946 | 1.03 | 0.911 | 1.05 | 0.977 | 0.966 | 0.965 | 0.983 | 0.98
7 | LCLC-97TM1 | 0.252 | 0.26 | 0.236 | 0.185 | 0.209 | 0.77 | 0.486 | 0.561 | 0.59 | 0.544 | 0.986 | 0.974 | 1.01 | 0.922 | 1.01 | 1.07 | 0.785 | 1.01 | 1 | 0.979
8 | LCLC-103H | 0.482 | 0.454 | 0.496 | 0.474 | 0.462 | 0.415 | 0.477 | 0.523 | 0.452 | 0.479 | 0.901 | 0.674 | 0.826 | 0.79 | 0.764 | 0.975 | 0.931 | 1.03 | 1.06 | 0.992
9 | LK-2 | 0.648 | 0.734 | 0.676 | 0.646 | 0.854 | 0.187 | 0.192 | 0.202 | 0.252 | 0.173 | 1.39 | 1.21 | 1.4 | 0.946 | 1.04 | 0.944 | 0.974 | 0.895 | 0.975 | 0.847
10 | LOU-NH91 | 0.526 | 0.528 | 0.535 | 0.553 | 0.525 | 0.786 | 0.662 | 0.731 | 0.817 | 0.721 | 0.926 | 0.896 | 0.95 | 0.921 | 1.05 | 1.02 | 0.945 | 0.939 | 1.07 | 0.984
11 | LU99A | 0.388 | 0.37 | 0.387 | 0.423 | 0.406 | 0.257 | 0.283 | 0.327 | 0.3 | 0.316 | 0.714 | 0.782 | 0.79 | 0.812 | 0.932 | 0.911 | 0.944 | 0.971 | 0.97 | 1.04
12 | LXF-289 | 0.577 | 0.604 | 0.621 | 0.598 | 0.566 | 0.771 | 0.813 | 0.952 | 0.873 | 0.744 | 0.99 | 1.01 | 0.882 | 1.02 | 0.953 | 0.938 | 1.01 | 0.999 | 1.02 | 0.979
13 | NCI-H596 | – | – | – | – | – | 0.644 | 0.776 | 0.669 | 0.808 | 0.779 | 0.84 | 0.614 | 0.848 | 0.961 | 0.874 | 0.965 | 0.957 | 1 | 1.12 | 0.932
14 | NCI-H1299 | – | – | – | – | – | – | – | – | – | – | 1.11 | 1.1 | 1.11 | 1.11 | 1.06 | 0.966 | 1.03 | 1.03 | 0.98 | 1.03
15 | NCI-H1563 | – | – | – | – | – | 0.825 | 0.797 | 0.827 | 0.758 | 0.785 | 0.983 | 0.977 | 0.975 | 0.898 | 0.953 | 1.01 | 1.07 | 0.97 | 1.05 | 1.08
16 | NCI-H1648 | 0.325 | 0.287 | 0.235 | 0.247 | 0.255 | 0.236 | 0.251 | 0.291 | 0.307 | 0.252 | – | – | – | – | – | 0.914 | 0.805 | 1.12 | 0.908 | 0.789
17 | NCI-H1703 | – | – | – | – | – | – | – | – | – | – | 0.326 | 0.332 | 0.445 | 0.355 | 0.328 | 1.01 | 1.08 | 0.882 | 0.637 | 0.541
18 | NCI-H1792 | 0.642 | 0.668 | 0.684 | 0.583 | 0.643 | 0.79 | 0.641 | 0.762 | 0.755 | 0.61 | – | – | – | – | – | 0.898 | 0.818 | 0.894 | 1.04 | 0.907
